Data on 11 compounds can be found in paper PMC2950628 (Journal of medicinal chemistry, 2008).

For one data set, the system named is PDE4.
Assay: not given
The note with it: Table 5, external test set s1–s9 from literature ref 19; cited from earlier work.
With `COc1ccc(C(=O)Nc2ccccc2C(F)(F)F)cc1OC1CCCC1` [s2], the “actual pIC50” value was 5.51.
Consider `CCCOc1cc(C(=O)Nc2c(F)cccc2F)ccc1OC` [s8], for which the “actual pIC50” value was 5.80.
Take `COc1ccc(C(=O)Nc2c(Cl)cccc2Cl)cc1OC1CCCC1` [s3]: the “actual pIC50” value is on record as 7.55.
With `COc1ccc(C(=O)Nc2c(F)cccc2F)cc1O` [s4], the “actual pIC50” value is reported as 4.43.
For `COc1ccc(C(=O)Nc2c(F)cccc2F)cc1OC1CCCC1` [s6], the “actual pIC50” value is 7.15.
For `COc1ccc(C(=S)Nc2c(Cl)cccc2Cl)cc1OC1CCCC1` [s9], the “actual pIC50” value is 6.70.
For the compound `COc1ccc(C(=O)Nc2ccccc2F)cc1OC1CCCC1` [s1], the “actual pIC50” value is on record as 4.97.
Turning to `COc1ccc(C(=O)Nc2ccccc2Cl)cc1OC` [s7], the “actual pIC50” value is on record as 6.19.
Regarding `COc1ccc(C(=O)Nc2c(F)cccc2F)cc1OC1CCCCC1` [s5], the “actual pIC50” value was 6.40.

System in another data set: not listed separately
The experiment in a line: Solubility in D2O confirmed by NMR. The class given is physicochemical.
Conditions: not given
Consider `CCCCC(=O)c1ccc(OC)c(OC2CCNCC2)c1` [5i, 1-[4-Methoxy-3-(piperidin-4-yloxy)phenyl]pentan-1-one], for which the solubility (commonly the dissolved amount per volume that the medium holds) was at most 800 µM.

The data set is the same for the next values; noted with them: NMR study conditions.
Regarding `CCCC(=O)c1ccc(OC(F)F)c(Oc2ccccn2)c1` [5zi, 1-[4-Difluoromethoxy-3-(pyridin-2-yloxy)phenyl]butan-1-one], the “solubility / behaviour in NMR sample” value was “solubility and nonspecific binding problems”.
